Test results as given in patent publication US6020342A, “Fused imidazo[1,2-A]pyridines” (Shinnippon Pharmaceutical, Inc., priority 1995, dated 2000).

biological target: T1, H^+ /K^+ -ATPase (Sus scrofa, UniProt P19156); experiment: Inhibitory Action on H^+ /K^+ -ATPase Activity; type: biochemical; settings: microsome fraction from porcine gastric mucosa, pH7.4, 37° C., 30 min preincubation, 15 min reaction
T1 construct: a microsome fraction prepared from porcine gastric mucosa was used as a standard enzyme; from tissue; host or cells: porcine gastric mucosa, microsome fraction
Experimental: Inhibitory Action on H^+ /K^+ -ATPase Activity
According to the method of Hongo et al. [The Japanese Journal of Pharmacology, 52, p295, (1990)], a microsome fraction prepared from porcine gastric mucosa was used as a standard enzyme. The standard enzyme (10-20lig protein) and the test compound (0.1-100 μM) dissolved in dimethylsulfoxide was incubated at 37° C. for 30 minutes in the 50 mM Tris-acetate buffer (pH7.4, containing 2 mM magnesium chloride, 5 mM potassium chloride). The enzyme reaction was started by adding adenosinetriphosphate (ATP). Tris at the final concentration of 2 mM, and the reaction was kept at 37° C. for 15 minutes. The reaction was stopped by adding chilled 10% trichloroacetic acid. Inorganic phosphate released during the reaction was calorimetrically determined according to the method of Fiske-Subbarow [The Journal of Biological Chemistry, 66, p375, (1925)]. H^+ /K^+ -ATPase activity was determined by the difference of the enzyme activities under the conditions with or without potassium chloride. The inhibitory activities of test compounds were determined as the 50% inhibitory concentration (IC50 value) from reaction-concentration curve, and the results are shown in Table 3.

T1 sequence (P19156 2-1034 limits assumed): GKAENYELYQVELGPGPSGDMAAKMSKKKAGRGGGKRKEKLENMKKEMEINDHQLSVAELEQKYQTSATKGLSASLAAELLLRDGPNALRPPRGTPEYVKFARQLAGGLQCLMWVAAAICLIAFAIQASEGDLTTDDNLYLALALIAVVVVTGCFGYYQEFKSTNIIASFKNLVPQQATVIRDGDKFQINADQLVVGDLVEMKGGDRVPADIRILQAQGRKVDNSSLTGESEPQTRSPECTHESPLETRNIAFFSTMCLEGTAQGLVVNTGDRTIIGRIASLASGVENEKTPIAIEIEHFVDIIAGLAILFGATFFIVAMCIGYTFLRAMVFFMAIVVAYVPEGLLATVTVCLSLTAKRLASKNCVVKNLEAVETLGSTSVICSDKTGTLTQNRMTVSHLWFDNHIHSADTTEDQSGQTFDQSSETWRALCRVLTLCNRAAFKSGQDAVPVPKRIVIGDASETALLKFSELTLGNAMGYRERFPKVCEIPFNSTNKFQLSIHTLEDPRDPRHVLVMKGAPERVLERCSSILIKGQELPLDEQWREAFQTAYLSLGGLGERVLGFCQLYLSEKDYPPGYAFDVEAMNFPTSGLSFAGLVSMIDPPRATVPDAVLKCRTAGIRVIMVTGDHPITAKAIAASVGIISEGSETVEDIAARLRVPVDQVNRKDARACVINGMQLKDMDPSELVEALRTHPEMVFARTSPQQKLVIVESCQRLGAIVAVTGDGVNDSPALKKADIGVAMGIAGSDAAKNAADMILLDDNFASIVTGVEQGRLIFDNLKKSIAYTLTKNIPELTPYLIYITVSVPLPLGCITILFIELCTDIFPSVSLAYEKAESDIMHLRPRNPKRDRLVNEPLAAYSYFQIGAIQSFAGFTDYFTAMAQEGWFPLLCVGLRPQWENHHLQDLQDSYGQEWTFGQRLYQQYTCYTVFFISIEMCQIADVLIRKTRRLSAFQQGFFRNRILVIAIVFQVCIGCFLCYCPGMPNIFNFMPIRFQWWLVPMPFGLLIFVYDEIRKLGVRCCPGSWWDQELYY
T1 sequence (P18434 whole entry partner): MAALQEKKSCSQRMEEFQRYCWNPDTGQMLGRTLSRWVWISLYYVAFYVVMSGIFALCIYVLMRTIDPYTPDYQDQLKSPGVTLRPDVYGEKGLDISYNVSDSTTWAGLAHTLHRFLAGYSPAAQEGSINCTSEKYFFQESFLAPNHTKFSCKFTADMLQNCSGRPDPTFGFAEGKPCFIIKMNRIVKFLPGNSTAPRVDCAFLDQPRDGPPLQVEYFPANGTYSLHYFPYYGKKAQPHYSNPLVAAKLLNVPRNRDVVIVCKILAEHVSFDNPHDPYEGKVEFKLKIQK

Row | SMILES | IC50
1 | Cc1ccccc1-c1nc2c3cc(Cl)ccc3ccn2c1N [Compound 6, 3-Amino-9-chloro-2-(2-methylphenyl)imidazo[2,1-a]isoquinoline] | 12 µM
2 | Cc1ccccc1-c1nc2c3c(Cl)cccc3ccn2c1N [Compound 7, 3-Amino-10-chloro-2-(2-methylphenyl)imidazo[2,1-a]isoquinoline] | 8 µM
3 | Cc1ccccc1-c1nc2c3ccccc3cc(C)n2c1N [Compound 9, 3-Amino-5-methyl-2-(2-methylphenyl)imidazo[2,1-a]isoquinoline] | 34 µM
4 | COc1ccc2ccn3c(N)c(-c4ccccc4C)nc3c2c1 [Compound 26, 3-Amino-9-methoxy-2-(2-methylphenyl)imidazo[2,1-a]isoquinoline] | 32 µM
5 | CSc1cccc2c1ccn1c(N)c(-c3ccccc3C)nc21 [Compound 46, 3-Amino-2-(2-methylphenyl)-7-(methylthio)imidazo[2,1-a]isoquinoline] | 8.4 µM
6 | COc1ccc2ccn3c(N)c(-c4sccc4C)nc3c2c1 [Compound 75, 3-Amino-9-methoxy-2-(3-methyl-2-thienyl)imidazo[2,1-a]isoquinoline] | 6.4 µM
7 | Cc1cc(-c2nc3c4ccccc4ccn3c2N)c(C)o1 [Compound 91, 3-Amino-2-(2,5-dimethyl-3-furyl)imidazo[2,1-a]isoquinoline] | 5.6 µM
8 | CCNc1c(-c2sccc2C)nc2c3ccccc3c(OC)cn12 [Compound 176, 3-Ethylamino-6-methoxy-2-(3-methyl-2-thienyl)imidazo[2,1-a]isoquinoline] | 9 µM
9 | CCNc1c(-c2csc(Cl)c2C)nc2c3ccccc3ccn12 [Compound 179, 2-(2-Chloro-3-methyl-4-thienyl)-3-ethylaminoimidazo[2,1-a]isoquinoline] | 4.8 µM
10 | CCCNc1c(-c2ccccc2C)nc2c3ccccc3c(OC)cn12 [Compound 182, 6-Methoxy-2-(2-methylphenyl)-3-propylaminoimidazo[2,1-a]isoquinoline] | 11 µM
11 | Cc1ccccc1-c1nc2c3ccccc3ccn2c1NCCC(C)C [Compound 188, 3-Isopentylamino-2-(2-methylphenyl)imidazo[2,1-a]isoquinoline] | 10.5 µM
12 | CCCN(CC)c1c(-c2ccccc2C)nc2c3ccccc3ccn12 [Compound 207, 3-(N-Ethyl-N-propylamino)-2-(2-methylphenyl)imidazo[2,1-a]isoquinoline] | 9.3 µM
13 | CCCN(CC)c1c(-c2sccc2C)nc2c3ccccc3ccn12 [Compound 212, 3-(N-Ethyl-N-propylamino)-2-(3-methyl-2-thienyl)imidazo[2,1-a]isoquinoline] | 1.9 µM

system: gastric acid secretion; experiment: Inhibition of Gastric Acid Secretion Observed Under Acute Fistula Method; type: in vivo, male Wistar rats; settings: Rattus norvegicus; 30 mg/kg intraduodenally, rats, histamine 10 mg/kg s.c., cumulative 2 h
Experimental: Inhibition of Gastric Acid Secretion Observed Under Acute Fistula Method
Male Wistar rats (6-8 weeks) fasted for 24 hours (water ad libitum) were used. The rats were anesthetized by intraperitoneal administration of 1.25 g/kg of urethane. The abdomen was incised, and acute gastric fistula was connected to the stomach. Two ml of saline was injected into the stomach, and recovered every 20 minutes. The gastric acid secretion was determined by titrating of gastric juice by 150 mM sodium hydroxide up to pH7.0 using an autotitrator. Test compounds (30 mg/kg) suspended in a 0.5% aqueous sodium carboxymethylcellulose (CMC-Na) solution were administered intraduodenally. After 1 hour, gastric acid secretion was stimulated by subcutaneous administration of histamine dihydrochloride dissolved in saline (10 mg/kg). Inhibition (%) of gastric acid secretion was determined by calculating cumulative amount of the acid secretion during two hours after histamine stimulation and then comparing the cumulative amount with that in the control group. In the control group, only 0.5% aqueous CMC-Na solution was administered intraduodenally.

Row | SMILES | inhibition in vivo at 30 mg/kg
14 | Cc1ccccc1-c1nc2c3cc(Cl)ccc3ccn2c1N [Compound 6, 3-Amino-9-chloro-2-(2-methylphenyl)imidazo[2,1-a]isoquinoline] | 79.6%
15 | Cc1ccccc1-c1nc2c3c(Cl)cccc3ccn2c1N [Compound 7, 3-Amino-10-chloro-2-(2-methylphenyl)imidazo[2,1-a]isoquinoline] | 74.9%
16 | Cc1ccccc1-c1nc2c3ccccc3cc(C)n2c1N [Compound 9, 3-Amino-5-methyl-2-(2-methylphenyl)imidazo[2,1-a]isoquinoline] | 90.7%
17 | COc1ccc2ccn3c(N)c(-c4ccccc4C)nc3c2c1 [Compound 26, 3-Amino-9-methoxy-2-(2-methylphenyl)imidazo[2,1-a]isoquinoline] | 90.8%
18 | CSc1cccc2c1ccn1c(N)c(-c3ccccc3C)nc21 [Compound 46, 3-Amino-2-(2-methylphenyl)-7-(methylthio)imidazo[2,1-a]isoquinoline] | 73.8%
19 | COc1ccc2ccn3c(N)c(-c4sccc4C)nc3c2c1 [Compound 75, 3-Amino-9-methoxy-2-(3-methyl-2-thienyl)imidazo[2,1-a]isoquinoline] | 73.3%
20 | CCNc1c(-c2sccc2C)nc2c3ccccc3c(OC)cn12 [Compound 176, 3-Ethylamino-6-methoxy-2-(3-methyl-2-thienyl)imidazo[2,1-a]isoquinoline] | 49.9%
21 | CCNc1c(-c2csc(Cl)c2C)nc2c3ccccc3ccn12 [Compound 179, 2-(2-Chloro-3-methyl-4-thienyl)-3-ethylaminoimidazo[2,1-a]isoquinoline] | 52.8%
22 | CCCNc1c(-c2ccccc2C)nc2c3ccccc3c(OC)cn12 [Compound 182, 6-Methoxy-2-(2-methylphenyl)-3-propylaminoimidazo[2,1-a]isoquinoline] | 58.4%
23 | Cc1ccccc1-c1nc2c3ccccc3ccn2c1NCCC(C)C [Compound 188, 3-Isopentylamino-2-(2-methylphenyl)imidazo[2,1-a]isoquinoline] | 79.1%
24 | CCCN(CC)c1c(-c2ccccc2C)nc2c3ccccc3ccn12 [Compound 207, 3-(N-Ethyl-N-propylamino)-2-(2-methylphenyl)imidazo[2,1-a]isoquinoline] | 67.4%

system: gastric acid secretion; experiment: Inhibition of Gastric Acid Secretion Observed Under Stomach Perfusion Method; type: in vivo, male Sprague Dawrey rats; settings: Rattus norvegicus, ip, 1 h; rats, histamine i.v. 8 mg/kg/hr, inhibition one hour after administration (1-10 mg/kg, "intrapenetorially"); read-out: ID50 (dose showing 50% inhibition of acid secretion)
Experimental: Inhibition of Gastric Acid Secretion Observed Under Stomach Perfusion Method
Male Sprague Dawrey rats (6-7weeks) fasted for 24 hours were used (water ad libitum). The rats were anesthetized by intraperitoneal administration of 1.25 g/kg of urethane. The abdomen was incised, and gastral cavity was perfused with saline during experiment. The perfusate was titrated by 10 mM sodium hydroxide up to pH5.5 using an autotitrator in accordance with Stat-method. Gastric acid secretion was stimulated by intravenous administration of histamine dihydrochloride (8 mg/kg/hr). Two hours after histamine stimulation, a test compound 1-10 mg/kg) was administered intrapenetorially. The test compound was mixed with small amount of polysorbate-80, and the mixture was suspended in saline. The test compound was evaluated using ID50 (dose showing 50% inhibition of acid secretion) which was calculated based on inhibition of the acid secretion observed one hour after administration of the compound.

Row | SMILES | ED50
25 | Cc1ccccc1-c1nc2c3cc(Cl)ccc3ccn2c1N [Compound 6, 3-Amino-9-chloro-2-(2-methylphenyl)imidazo[2,1-a]isoquinoline] | 5 mg/kg
26 | Cc1ccccc1-c1nc2c3ccccc3cc(C)n2c1N [Compound 9, 3-Amino-5-methyl-2-(2-methylphenyl)imidazo[2,1-a]isoquinoline] | 3.1 mg/kg
27 | COc1ccc2ccn3c(N)c(-c4ccccc4C)nc3c2c1 [Compound 26, 3-Amino-9-methoxy-2-(2-methylphenyl)imidazo[2,1-a]isoquinoline] | 2.8 mg/kg

system: not given; experiment: not given; design: species or system male ICR mice; settings: mouse, in vivo, po, 10080 min
Experimental: Male ICR mice (6 weeks, 3 mice per group) fasted for 16 hours were used ad libitum). A test compound suspended in 5% aqueous gum arabic solution was orally administered. After administration, mortality of the animals observed during 7 days and approximate lethal dose was determined.

Row | SMILES | Approximate lethal dose
28 | Cc1ccccc1-c1nc2c3cc(Cl)ccc3ccn2c1N [Compound 6, 3-Amino-9-chloro-2-(2-methylphenyl)imidazo[2,1-a]isoquinoline] | > 2,000 mg/kg
29 | Cc1ccccc1-c1nc2c3ccccc3cc(C)n2c1N [Compound 9, 3-Amino-5-methyl-2-(2-methylphenyl)imidazo[2,1-a]isoquinoline] | > 2,000 mg/kg
30 | COc1ccc2ccn3c(N)c(-c4ccccc4C)nc3c2c1 [Compound 26, 3-Amino-9-methoxy-2-(2-methylphenyl)imidazo[2,1-a]isoquinoline] | > 2,000 mg/kg
31 | Cc1cc(-c2nc3c4ccccc4ccn3c2N)c(C)o1 [Compound 91, 3-Amino-2-(2,5-dimethyl-3-furyl)imidazo[2,1-a]isoquinoline] | > 2,000 mg/kg
32 | CCNc1c(-c2sccc2C)nc2c3ccccc3c(OC)cn12 [Compound 176, 3-Ethylamino-6-methoxy-2-(3-methyl-2-thienyl)imidazo[2,1-a]isoquinoline] | > 2,000 mg/kg
33 | CCNc1c(-c2csc(Cl)c2C)nc2c3ccccc3ccn12 [Compound 179, 2-(2-Chloro-3-methyl-4-thienyl)-3-ethylaminoimidazo[2,1-a]isoquinoline] | > 2,000 mg/kg
34 | CCCNc1c(-c2ccccc2C)nc2c3ccccc3c(OC)cn12 [Compound 182, 6-Methoxy-2-(2-methylphenyl)-3-propylaminoimidazo[2,1-a]isoquinoline] | > 2,000 mg/kg
35 | Cc1ccccc1-c1nc2c3ccccc3ccn2c1NCCC(C)C [Compound 188, 3-Isopentylamino-2-(2-methylphenyl)imidazo[2,1-a]isoquinoline] | > 2,000 mg/kg
36 | CCCN(CC)c1c(-c2sccc2C)nc2c3ccccc3ccn12 [Compound 212, 3-(N-Ethyl-N-propylamino)-2-(3-methyl-2-thienyl)imidazo[2,1-a]isoquinoline] | > 2,000 mg/kg
